Drawing on patent publication US7531482B2, “Thieno-pyrimidine compounds having fungicidal activity” (Dow AgroSciences LLC, priority 2005, dated 2009), this text covers pest or weed control for nine molecules.

Common to all, as to type: in vivo
One experiment concerns Colletotricum lagenarium. Kind of experiment: Cucumber Anthracnose (COLLLA) whole-plant disease control test. The following applies: Cucumis sativus, foliar; 200 ppm applied to foliage of cucumber; inoculated one day after treatment; read-out: COLLLA disease control.
The next experiment concerns Erysiphe cichoracaerum. As to the kind of experiment: Cucumber Powdery Mildew (ERYSCI) whole-plant disease control test. The following applies: Erysiphe, foliar; 200 ppm applied to foliage of cucumber; inoculated one day after treatment; read-out: ERYSCI disease control.
In the next experiment the test system is Leptosphaeria nodorum. As to the kind of experiment: Glume Blotch of Wheat (LEPTNO) whole-plant disease control test. To be noted: Parastagonospora nodorum, foliar; 200 ppm applied to foliage of wheat; inoculated one day after treatment; read-out: LEPTNO disease control.
For another experiment, the system named is Phytophthora infestans. As to the kind of experiment: whole plant or invertebrate. To be noted: Phytophthora infestans, in Solanum lycopersicum, foliar, read-out: PHYTIN disease control, 200 ppm applied to foliage of tomato; inoculated one day after treatment.
Experiment [1] deals with Puccinia recondita tritici. As to the kind of experiment: Leaf Rust of Wheat (PUCCRT) whole-plant disease control test. To be noted: Puccinia recondita, foliar, 200 ppm applied to foliage of wheat; inoculated one day after treatment; read-out: PUCCRT disease control.
Experiment [2] deals with Magnaporthe grisea=Pyricularia oryzae. Kind of experiment: whole plant or invertebrate. To be noted: Pyricularia oryzae, foliar, read-out: PYRIOR disease control, 200 ppm applied to foliage of rice; inoculated one day after treatment.
For experiment [3], the system named is Mycosphaerella graminicola=Septoria tritici. As to the kind of experiment: Speckled Leaf Blotch of Wheat (SEPTTR) whole-plant disease control test. To be noted: Mycosphaerella, foliar, 75 ppm applied to foliage of wheat; read-out: SEPTTR disease control.

On to `CO/N=C(\C)c1cnc(Oc2ccc(CCNc3ncnc4scc(Cl)c34)cc2)s1` [Compound 48], for which the pest or weed control at 200 ppm in the experiment on Colletotricum lagenarium lay within 50 to 79%; in the experiment with Erysiphe cichoracaerum it was 80 to 100%; in the experiment with Leptosphaeria nodorum, 0 to 49%; in the experiment on Phytophthora infestans it was 80 to 100%; in experiment [1], 80 to 100%; in experiment [2] it was 80 to 100%. For the same molecule, the pest or weed control at 75 ppm in experiment [3] was 50 to 79%.

As for `c1csc(Oc2ccc(CCNc3ncnc4sccc34)cc2)n1` [Compound 49], the pest or weed control at 200 ppm with Colletotricum lagenarium lay within 50 to 79%; in the experiment with Erysiphe cichoracaerum it was 80 to 100%; with Leptosphaeria nodorum, 50 to 79%; with Phytophthora infestans, 80 to 100%; in experiment [1], 80 to 100%; in experiment [2], 80 to 100%. The pest or weed control at 75 ppm in experiment [3] was in the range of 50 to 79%.

Consider `Cc1cc(Oc2ccc(CCNc3ncnc4scc(Cl)c34)cc2)cnc1S(C)(=O)=O` [Compound 50], for which the pest or weed control at 200 ppm in the experiment with Colletotricum lagenarium is 50 to 79%; in the experiment with Erysiphe cichoracaerum, 0 to 49%; with Leptosphaeria nodorum, 50 to 79%; in the experiment with Phytophthora infestans, 80 to 100%; in experiment [1] it was 80 to 100%; in experiment [2], 80 to 100%. Besides, the pest or weed control at 75 ppm in experiment [3] fell in the range of 50 to 79%.

For `Clc1cc(Br)cnc1Oc1ccc(CCNc2ncnc3scc(Cl)c23)cc1` [Compound 51], the pest or weed control at 200 ppm is 0 to 49% in the experiment on Colletotricum lagenarium; 0 to 49% in the experiment with Erysiphe cichoracaerum; 0 to 49% in the experiment on Leptosphaeria nodorum; 0 to 49% with Phytophthora infestans; 80 to 100% in experiment [1]; 80 to 100% in experiment [2]. For the same molecule, the pest or weed control at 75 ppm in experiment [3] lay within 50 to 79%.

Regarding `CCc1ncnc(Oc2ccc(CCNc3ncnc4scc(Cl)c34)cc2)c1Cl` [Compound 52], the pest or weed control at 200 ppm in the experiment with Colletotricum lagenarium was 50 to 79%; in the experiment on Erysiphe cichoracaerum, 50 to 79%; in the experiment on Leptosphaeria nodorum, 50 to 79%; in the experiment on Phytophthora infestans, 0 to 49%; in experiment [1], 80 to 100%; in experiment [2], 80 to 100%. Moreover, the pest or weed control at 75 ppm in experiment [3] lay in the range of 80 to 100%.

As for `N#Cc1ccnc(Oc2ccc(CCNc3ncnc4sccc34)cc2)c1` [Compound 53], the pest or weed control at 200 ppm is 80 to 100% in the experiment on Colletotricum lagenarium; 50 to 79% in the experiment with Erysiphe cichoracaerum; 50 to 79% in the experiment on Leptosphaeria nodorum; 80 to 100% in the experiment on Phytophthora infestans; 80 to 100% in experiment [1]; 80 to 100% in experiment [2]. For the same molecule, the pest or weed control at 75 ppm in experiment [3] was 50 to 79%.

Turning to `Clc1csc2ncnc(NCCc3ccc(Oc4ncnc5sccc45)cc3)c12` [Compound 54], the pest or weed control at 200 ppm in the experiment with Colletotricum lagenarium is 80 to 100%; in the experiment with Erysiphe cichoracaerum, 50 to 79%; in the experiment with Leptosphaeria nodorum it was 50 to 79%; with Phytophthora infestans it was 80 to 100%; in experiment [1], 80 to 100%; in experiment [2], 80 to 100%. In experiment [3], the pest or weed control at 75 ppm was 0 to 49%.

In the case of `N#Cc1ccnc(Oc2ccc(CCNc3ncnc4scc(F)c34)cc2)c1` [Compound 55], the pest or weed control at 200 ppm in the experiment with Colletotricum lagenarium is 80 to 100%; in the experiment on Erysiphe cichoracaerum, 50 to 79%; in the experiment on Leptosphaeria nodorum, 0 to 49%; in the experiment with Phytophthora infestans it was 50 to 79%; in experiment [1], 80 to 100%; in experiment [2], 0 to 49%. In addition, the pest or weed control at 75 ppm in experiment [3] was in the range of 50 to 79%.

On to `Brc1csc2ncnc(NCCc3ccc(Oc4ncnc5scc(Br)c45)cc3)c12` [Compound 57], for which the pest or weed control at 200 ppm lay within 50 to 79% in the experiment on Colletotricum lagenarium; 0 to 49% in the experiment on Erysiphe cichoracaerum; 0 to 49% in the experiment on Leptosphaeria nodorum; 0 to 49% in the experiment with Phytophthora infestans; 80 to 100% in experiment [1]; 80 to 100% in experiment [2]. The pest or weed control at 75 ppm in experiment [3] fell in the range of 0 to 49%.
